# Reference: patent US9684238B2, “Fluorene-type compound, photopolymerization initiator comprising said fluorene-type compound, and photosensitive composition containing said photopolymerization initiator” (TOKYO OHKA KOGYO CO., LTD., priority 2012, dated 2017)
# Columns and labels:
# [1] = Evaluation 1: 20-μm pattern line width of transparent photosensitive composition; settings: for 20-μm pattern line width: transparent composition, initiator 0.4 mmol; for sensitivity to the active energy ray (in words): photopolymerization initiator containing the compound
# Experimental: After that, the mixture was filtered with a membrane filter having an aperture of 5 μm to provide a photosensitive composition.
# It should be noted that the fluorene-based compound as a photopolymerization initiator was used in such an amount that its molar quantity was kept constant in the respective examples and comparative examples.
# The glass substrate after the application was dried with a fan dryer at 90° C. for 10 minutes. Thus, a coating film (photosensitive layer) was formed. Next, the film was exposed to light having an exposure energy quantity of 5 mJ/cm^2, 10 mJ/cm^2, 20 mJ/cm^2, 40 mJ/cm^2, 60 mJ/cm^2, or 80 mJ/cm^2 by using a high-pressure mercury lamp (manufactured by Karl Suss, trade name: “MASK ALIGNER”) through a negative mask (mask width: 20 μm). Next, the resultant was immersed in a 0.1 wt % aqueous solution of tetramethylammonium hydroxide (TMAH) and then rinsed with pure water. The remaining cured film was subjected to the following evaluation.
# (§1) A larger value for the line width means higher sensitivity.
# [2] = Absorption coefficient (absorbance of 0.001% solution in tetrahydrofuran); assay type: physicochemical; settings: for Λ max (absorption maximum wavelength): 0.001% (wt/vol) in tetrahydrofuran, from 280 nm to 400 nm; for Absorption coefficient at 365 nm / Absorption coefficient at Λ max: 0.001% (wt/vol) solution in tetrahydrofuran
# Experimental: A 0.001% (wt/vol) solution of each of the compounds 1, 2, 4, 6, 8, 9, 11, 12, 13, 15, 16, D-1, D-3, D-4, D-7, D-8, D-9, D-12, D-14, D-15, D-20, C-1, and C-2 in tetrahydrofuran was prepared, and its absorbance was measured with a spectrophotometer (manufactured by Hitachi High-Technologies Corporation, trade name: “U-3900H”). An absorption maximum wavelength (Amax) at a wavelength of from 280 nm to 400 nm was read from an absorption spectrum obtained with the spectrophotometer.
# [3] = Average transmittance of composition; assay type: physicochemical; settings: photosensitive composition, quartz cell, optical path length 1 cm
# Experimental: The average transmittance (%) of each of the photosensitive resin compositions obtained in Examples 1 to 9, Examples 2-1 to 2-10, and Comparative Examples 1 and 2 in the range of from 400 nm to 700 nm was measured with a spectrophotometer (manufactured by Hitachi High-Technologies Corporation, trade name: “U-3900H”, quartz cell, optical path length; 1 cm).
# [4] = Decomposition point by thermal analysis (TG-DTA); assay type: physicochemical; settings: 5.0 mg
# Experimental: The compounds 1, 2, 4, 6, 8, 9, 11, 12, 13, 15, 16, D-1, D-3, D-4, D-7, D-8, D-9, D-12, D-14, D-15, D-20, C-1, and C-2 were each subjected to measurement with a thermal analysis apparatus (TG-DTA) (manufactured by Rigaku Corporation, trade name: “Thermo Plus EVO TG 8120”) by using 5.0 mg thereof.
# [5] = Transmittance of transparent cured film; assay type: physicochemical; settings: for Average transmittance (700 nm to 400 nm) Transparent cured film / Transmittance (400 nm) Transparent cured film: cured at exposure energy quantity 80 mJ/cm^2; for transparency of photosensitive composition and formed product (in words): photopolymerization initiator containing the compound
# Experimental: Transparent cured films were formed by using the photosensitive compositions obtained in Examples 1 to 9, Examples 2-1 to 2-10, and Comparative Examples 1 and 2 in the same manner as in the evaluation 1 except that the exposure energy quantity was set to 80 mJ/cm^2. The transmittance (%) of each of the resultant transparent cured films at 400 nm and the average transmittance (%) thereof in the range of from 400 to 700 nm were measured with a spectrophotometer (manufactured by Hitachi High-Technologies Corporation, trade name: “U-3900H”, quartz cell, optical path length; 1 cm). A higher transmittance at 400 nm means less coloring with a yellow color. In addition, a higher transmittance of a coating film means a higher transmitting property of a pattern to be formed.
# [6] = Evaluation 3: 20-μm pattern line width of black photosensitive composition; settings: black composition (carbon black, cardo resin), initiator 0.4 mmol
# Description: The mixture was filtered with a membrane filter having an aperture of 5 μm to provide a photosensitive composition.
# Photosensitive compositions were each obtained in the same manner as in Example 10 except that the used fluorene-based compound and its usage were changed as shown in Table 5.
# Each of the photosensitive compositions obtained in Examples 10 to 15, Examples 2-11 to 2-20, and Comparative Example 3 was applied onto a glass substrate with a spin coater (manufactured by Kyowariken Co., Ltd., trade name: “K-359SD1”) so that its thickness after drying became 1.0 μm. The glass substrate after the application was dried with a fan dryer at 90° C. for 10 minutes. Thus, a coating film (photosensitive layer) was formed. Next, the film was exposed to light having an exposure energy quantity of 10 mJ/cm^2, 20 mJ/cm^2, 40 mJ/cm^2, 60 mJ/cm^2, or 80 mJ/cm^2 by using a high-pressure mercury lamp (manufactured by Karl Suss, trade name: “MASK ALIGNER”) through a negative mask (mask width: 20 μm). Next, the resultant was immersed in a 0.1 wt % aqueous solution of tetra methyl ammonium hydroxide (TMAH) and then rinsed with pure water. The remaining cured film was subjected to the following evaluation. In addition, FIGS. 2, 3, and 6 show microscope photographs of black cured films obtained by using the photosensitive compositions of Examples 10 and 11, and Comparative Example 3, and FIGS. 7 to 11 show microscope photographs of black cured films obtained by using the photosensitive compositions of Examples 2-11, 2-13, 2-14, 2-17, and 2-18.
# as §1
# [7] = exposure energy quantity 10 mJ/cm^2
# [8] = exposure energy quantity 20 mJ/cm^2
# [9] = exposure energy quantity 40 mJ/cm^2
# [10] = exposure energy quantity 60 mJ/cm^2
# [11] = exposure energy quantity 80 mJ/cm^2
# [12] = exposure energy quantity 5 mJ/cm^2
Compound,"20-μm pattern line width [1, 7]","20-μm pattern line width [1, 8]","20-μm pattern line width [1, 9]","20-μm pattern line width [1, 10]","20-μm pattern line width [1, 11]",Λ max (absorption maximum wavelength) [2] [nm],Absorption coefficient at 365 nm [2] [mL/mg/cm],Absorption coefficient at Λ max [2] [mL/mg/cm],Average transmittance (700 nm to 400 nm) Solution [3] [%],Decomposition point [4] [°C],Average transmittance (700 nm to 400 nm) Transparent cured film [5] [%],Transmittance (400 nm) Transparent cured film [5] [%],sensitivity to the active energy ray (in words) [1],"20-μm pattern line width [1, 12]",20-μm pattern line width ([6]; 10 mJ/cm^2),20-μm pattern line width ([6]; 20 mJ/cm^2),20-μm pattern line width ([6]; 40 mJ/cm^2),20-μm pattern line width ([6]; 60 mJ/cm^2),20-μm pattern line width ([6]; 80 mJ/cm^2),transparency of photosensitive composition and formed product (in words) [5]
CCCCCCC1(CCCCCC)c2cc(C(=O)c3ccc([N+](=O)[O-])cc3)ccc2-c2ccc(C(CC(C)N(OC(C)=O)C(C)=O)=NOC(C)=O)cc21 (racemic) [Compound 12],19.8,20.0,21.0,21.2,21.5,335.5,11.8,43.0,77.8,195.2,99.8,99.7,,,,,,,,
CCCC1(CCC)c2cc(C(CCCSc3ccc(Cl)cc3)=NOC(C)=O)ccc2-c2ccc([N+](=O)[O-])cc21 [Compound D-14],20.6,21.7,22.8,,23.2,345.5,36.3,53.9,65.1,186.9,99.5,92.7,additionally high sensitivity to the active energy ray,19.9,19.9,20.6,21.7,22.8,23.2,
CCCC1(CCC)c2cc(C(=O)C(CCSc3ccc(Cl)cc3)=NOC(C)=O)ccc2-c2ccc([N+](=O)[O-])cc21 [Compound D-15],19.9,20.7,21.4,,22.3,346.0,36.7,52.6,86.2,202.1,99.1,91.9,,19.5,19.5,19.9,20.7,21.4,22.3,
CCCCCCC1(CCCCCC)c2cc(C(=O)c3ccc(F)cc3)ccc2-c2ccc(/C(CC(C)N(OC(C)=O)C(C)=O)=N\OC(C)=O)cc21 (stereo not shown) [Compound 9],19.9,20.5,21.3,22.2,22.8,330.0,3.0,54.0,94.0,192.7,100.0,99.4,,,19.9,20.5,21.3,22.2,22.8,additionally excellent transparency
CCCCCCC1(CCCCCC)c2cc(C(=O)C(=NOC(C)=O)c3cc(C)ccc3C)ccc2-c2ccc(C(=O)c3ccc([N+](=O)[O-])cc3)cc21 [Compound 13],19.4,19.6,19.8,20.6,21.0,338.5,9.2,36.3,79.2,167.1,99.4,97.0,,,,,,,,
CCCCCCC1(CCCCCC)c2cc(C(=O)c3cccs3)ccc2-c2ccc(C(CC(C)N(OC(C)=O)C(C)=O)=NOC(C)=O)cc21 (racemic) [Compound 11],19.9,20.5,21.9,22.5,22.8,333.5,6.6,55.0,93.0,257.3,100.0,99.1,additionally high sensitivity to the active energy ray,,,,,,,additionally excellent transparency
